According to paper PMC7501296, “Rapid and direct control of target protein levels with VHL-recruiting dTAG molecules” (Nature Communications, 2020):

Test system: EWS502 FKBP12^F36V-EWS/FLI; EWS/FLI^−/− cells
Test: Synergy assessment: antiproliferation of EWS502 FKBP12F36V-EWS/FLI; EWS/FLI-/- cells co-treated with dTAGV-1 and dBET6, 72 h
Type: cell-based
Experimental: Cell viability was assayed in 2D-adherent or ultra-low adherent 3D-spheroids using CellTiter-Glo (Promega)[6],[15]. Luminescence was measured on an Envision 2104 plate reader (PerkinElmer) and Fluostar Omega Reader (BMG Labtech) and data was analyzed using GraphPad PRISM v8. Synergy assessments were performed using CellTiter-Glo (Promega) with the following modifications to the protocol described in the ref. [34]. In brief, EWS502 cells were plated at 1000 cells per well in 50 µL of appropriate media in 384-well white culture plates (Corning) allowed to adhere overnight, and 100 nL of compounds were added using a Janus Workstation pin tool (PerkinElmer) for 72 h. Cell viability was measured by addition of 10 µL of CellTiter-glo (Promega), followed by incubation for 15 minutes at room temperature. Luminescence was measured on an Envision 2104 plate reader (PerkinElmer) and data was analyzed using GraphPad PRISM v8.

Cc1sc2c(c1C)C(c1ccc(Cl)cc1)=N[C@@H](CC(=O)NCCCCCCCCNC(=O)COc1cccc3c1C(=O)N(C1CCC(=O)NC1=O)C3=O)c1nnc(C)n1-2 (stereo partly shown) [dBET6]
Average DMSO-normalized ratio used for CI calculation (1 nM dBET6 + 19.5 nM dTAGV-1): 0.9811 | Average DMSO-normalized ratio used for CI calculation (1 nM dBET6 + 78 nM dTAGV-1): 1.134 | Average DMSO-normalized ratio used for CI calculation (1 nM dBET6 + 312.5 nM dTAGV-1): 1.111 | Average DMSO-normalized ratio used for CI calculation (1 nM dBET6 + 1250 nM dTAGV-1): 0.8948 | Average DMSO-normalized ratio used for CI calculation (1 nM dBET6 + 5000 nM dTAGV-1): 0.8015 | Average DMSO-normalized ratio used for CI calculation (1 nM dBET6 alone): 0.8411 | Average DMSO-normalized ratio used for CI calculation (4 nM dBET6 + 19.5 nM dTAGV-1): 0.9809 | Average DMSO-normalized ratio used for CI calculation (4 nM dBET6 + 78 nM dTAGV-1): 1.057 | Average DMSO-normalized ratio used for CI calculation (4 nM dBET6 + 312.5 nM dTAGV-1): 1.0595 | Average DMSO-normalized ratio used for CI calculation (4 nM dBET6 + 1250 nM dTAGV-1): 0.7491 | Average DMSO-normalized ratio used for CI calculation (4 nM dBET6 + 5000 nM dTAGV-1): 0.4793 | Average DMSO-normalized ratio used for CI calculation (4 nM dBET6 alone): 0.8957 | Average DMSO-normalized ratio used for CI calculation (15.6 nM dBET6 + 19.5 nM dTAGV-1): 0.798 | Average DMSO-normalized ratio used for CI calculation (15.6 nM dBET6 + 78 nM dTAGV-1): 0.8317 | Average DMSO-normalized ratio used for CI calculation (15.6 nM dBET6 + 312.5 nM dTAGV-1): 0.7228 | Average DMSO-normalized ratio used for CI calculation (15.6 nM dBET6 + 1250 nM dTAGV-1): 0.4425 | Average DMSO-normalized ratio used for CI calculation (15.6 nM dBET6 + 5000 nM dTAGV-1): 0.279 | Average DMSO-normalized ratio used for CI calculation (15.6 nM dBET6 alone): 0.7797 | Average DMSO-normalized ratio used for CI calculation (62.5 nM dBET6 + 19.5 nM dTAGV-1): 0.5057 | Average DMSO-normalized ratio used for CI calculation (62.5 nM dBET6 + 78 nM dTAGV-1): 0.5414 | Average DMSO-normalized ratio used for CI calculation (62.5 nM dBET6 + 312.5 nM dTAGV-1): 0.4908 | Average DMSO-normalized ratio used for CI calculation (62.5 nM dBET6 + 1250 nM dTAGV-1): 0.3106 | Average DMSO-normalized ratio used for CI calculation (62.5 nM dBET6 + 5000 nM dTAGV-1): 0.2615 | Average DMSO-normalized ratio used for CI calculation (62.5 nM dBET6 alone): 0.5245 | Average DMSO-normalized ratio used for CI calculation (250 nM dBET6 + 19.5 nM dTAGV-1): 0.3576 | Average DMSO-normalized ratio used for CI calculation (250 nM dBET6 + 78 nM dTAGV-1): 0.3678 | Average DMSO-normalized ratio used for CI calculation (250 nM dBET6 + 312.5 nM dTAGV-1): 0.3326 | Average DMSO-normalized ratio used for CI calculation (250 nM dBET6 + 1250 nM dTAGV-1): 0.2968 | Average DMSO-normalized ratio used for CI calculation (250 nM dBET6 + 5000 nM dTAGV-1): 0.2503 | Average DMSO-normalized ratio used for CI calculation (250 nM dBET6 alone): 0.3398 | DMSO-normalized antiproliferation, Mean (co-treatment 19.5 nM dTAGV-1 (log10[M] -7.70927) + 1 nM dBET6 (log10[M] -9.0103)): 98.11 | DMSO-normalized antiproliferation, Mean (co-treatment 19.5 nM dTAGV-1 (log10[M] -7.70927) + 4 nM dBET6 (log10[M] -8.40824)): 98.09 | DMSO-normalized antiproliferation, Mean (co-treatment 19.5 nM dTAGV-1 (log10[M] -7.70927) + 15.6 nM dBET6 (log10[M] -7.80618)): 79.8 | DMSO-normalized antiproliferation, Mean (co-treatment 19.5 nM dTAGV-1 (log10[M] -7.70927) + 62.5 nM dBET6 (log10[M] -7.20412)): 50.57 | DMSO-normalized antiproliferation, Mean (co-treatment 19.5 nM dTAGV-1 (log10[M] -7.70927) + 250 nM dBET6 (log10[M] -6.60206)): 35.76 | DMSO-normalized antiproliferation, Mean (co-treatment 78 nM dTAGV-1 (log10[M] -7.10721) + 1 nM dBET6 (log10[M] -9.0103)): 113.36 | DMSO-normalized antiproliferation, Mean (co-treatment 78 nM dTAGV-1 (log10[M] -7.10721) + 4 nM dBET6 (log10[M] -8.40824)): 105.67 | DMSO-normalized antiproliferation, Mean (co-treatment 78 nM dTAGV-1 (log10[M] -7.10721) + 15.6 nM dBET6 (log10[M] -7.80618)): 83.17 | DMSO-normalized antiproliferation, Mean (co-treatment 78 nM dTAGV-1 (log10[M] -7.10721) + 62.5 nM dBET6 (log10[M] -7.20412)): 54.14 | DMSO-normalized antiproliferation, Mean (co-treatment 78 nM dTAGV-1 (log10[M] -7.10721) + 250 nM dBET6 (log10[M] -6.60206)): 36.78 | DMSO-normalized antiproliferation, Mean (co-treatment 312.5 nM dTAGV-1 (log10[M] -6.50515) + 1 nM dBET6 (log10[M] -9.0103)): 111.14 | DMSO-normalized antiproliferation, Mean (co-treatment 312.5 nM dTAGV-1 (log10[M] -6.50515) + 4 nM dBET6 (log10[M] -8.40824)): 105.95 | DMSO-normalized antiproliferation, Mean (co-treatment 312.5 nM dTAGV-1 (log10[M] -6.50515) + 15.6 nM dBET6 (log10[M] -7.80618)): 72.28 | DMSO-normalized antiproliferation, Mean (co-treatment 312.5 nM dTAGV-1 (log10[M] -6.50515) + 62.5 nM dBET6 (log10[M] -7.20412)): 49.08 | DMSO-normalized antiproliferation, Mean (co-treatment 312.5 nM dTAGV-1 (log10[M] -6.50515) + 250 nM dBET6 (log10[M] -6.60206)): 33.26 | DMSO-normalized antiproliferation, Mean (co-treatment 1250 nM dTAGV-1 (log10[M] -5.90309) + 1 nM dBET6 (log10[M] -9.0103)): 89.48 | DMSO-normalized antiproliferation, Mean (co-treatment 1250 nM dTAGV-1 (log10[M] -5.90309) + 4 nM dBET6 (log10[M] -8.40824)): 74.91 | DMSO-normalized antiproliferation, Mean (co-treatment 1250 nM dTAGV-1 (log10[M] -5.90309) + 15.6 nM dBET6 (log10[M] -7.80618)): 44.25 | DMSO-normalized antiproliferation, Mean (co-treatment 1250 nM dTAGV-1 (log10[M] -5.90309) + 62.5 nM dBET6 (log10[M] -7.20412)): 31.06 | DMSO-normalized antiproliferation, Mean (co-treatment 1250 nM dTAGV-1 (log10[M] -5.90309) + 250 nM dBET6 (log10[M] -6.60206)): 29.68 | DMSO-normalized antiproliferation, Mean (co-treatment 5000 nM dTAGV-1 (log10[M] -5.30103) + 1 nM dBET6 (log10[M] -9.0103)): 80.15 | DMSO-normalized antiproliferation, Mean (co-treatment 5000 nM dTAGV-1 (log10[M] -5.30103) + 4 nM dBET6 (log10[M] -8.40824)): 47.93 | DMSO-normalized antiproliferation, Mean (co-treatment 5000 nM dTAGV-1 (log10[M] -5.30103) + 15.6 nM dBET6 (log10[M] -7.80618)): 27.9 | DMSO-normalized antiproliferation, Mean (co-treatment 5000 nM dTAGV-1 (log10[M] -5.30103) + 62.5 nM dBET6 (log10[M] -7.20412)): 26.15 | DMSO-normalized antiproliferation, Mean (co-treatment 5000 nM dTAGV-1 (log10[M] -5.30103) + 250 nM dBET6 (log10[M] -6.60206)): 25.03 | Synergy with VHL-mediated EWS/FLI degradation (dTAGV-1) (combination index): synergized strongly | DMSO-normalized antiproliferation, Mean (dBET6 log10[M] -6.60206, with DMSO (no dTAGV-1)): 33.98 | DMSO-normalized antiproliferation, Mean (dBET6 log10[M] -7.20412, with DMSO (no dTAGV-1)): 52.45 | DMSO-normalized antiproliferation, Mean (dBET6 log10[M] -7.80618, with DMSO (no dTAGV-1)): 77.97 | DMSO-normalized antiproliferation, Mean (dBET6 log10[M] -8.40824, with DMSO (no dTAGV-1)): 89.57 | DMSO-normalized antiproliferation, Mean (dBET6 log10[M] -9.0103, with DMSO (no dTAGV-1)): 84.11
